Tests used:
Vaccinia = assay: microbe, parasite or virus in culture; type: cell-based; conditions: Orthopoxvirus vaccinia, Vero C1008
RSV = RSV CPE protection assay in Vero cells; type: cell-based, respiratory syncytial virus
Yellow Fever = assay: microbe, parasite or virus in culture; type: cell-based, yellow fever virus
[1] = human respiratory syncytial virus, Vero

Which results are given for `COc1ccc([C@H]2c3[nH]c4ccc(Cl)cc4c3CCN2C(=O)Oc2ccc(Cl)cc2)cc1` (racemic) [Compound #10]?
IC50 (Vaccinia): 40 nM; IC90 (Vaccinia): 80 nM; IC50 (RSV; [1]): 250 nM; IC90 (RSV; [1]): ≥ 160 nM; Activity against respiratory syncytial virus (RSV) (RSV; in words): potent activity; IC50 (Yellow Fever; Yellow fever virus, HeLa): > 1000 nM; IC90 (Yellow Fever; Yellow fever virus, HeLa): > 1000 nM; Activity against yellow fever (Yellow Fever; at the doses tested, in words): inactive
